Data on 1 molecule can be found in paper PMC6985936, “2-Amino-2,3-dihydro-1H-indene-5-carboxamide-Based Discoidin Domain Receptor 1 (DDR1) Inhibitors: Design, Synthesis, and in Vivo Antipancreatic Cancer Efficacy” (Journal of Medicinal Chemistry, 2019).

Like-named read-outs stand apart in the source and are kept apart here.

The conditions of data set [1]: SD rats.
Method: (§1) All animal studies were performed according to the protocols and guidelines of the institutional care and use committee. The 4–6 week old male Sprague-Dawley rats were purchased from the Shanghai Laboratory Animal Research Center (Shanghai, China). All of the procedures related to animal handling, care, and treatment in this article were performed in compliance with Agreement of the Ethics Committee on Laboratory Animal Care and the Guidelines for the Care and Use of Laboratory Animals in Shanghai, China. […] The compound was dissolved in the solution containing 2% DMSO, 4% ethanol, 4% castor oil, and 90% ddH2O. Pharmacokinetic properties of SD rats (male) were determined following intravenous (iv) and oral administration. Animals were randomly distributed into two experimental groups (n = 3). The oral groups were given 25 mg/kg by gastric gavage. The other group was dosed by injection into the tail vein (5 mg/kg). […] Whole blood samples were collected in heparinized tubes. The plasma fraction was immediately separated by centrifugation (8000 rpm, 6 min, 4 °C) and stored at −20 °C until liquid chromatography–mass spectrometry analysis. […] The pharmacokinetics parameters were calculated by analyzing the compound concentration in plasma samples using the pharmacokinetic software DAS.2.0.
The nature of data set [2]: in vivo. Conditions: male, Sprague-Dawley, rat, plasma, po, 25 mg/kg.
Method: as §1

As for `Cc1cn(-c2cc(NC(=O)c3ccc4c(c3)C[C@H](N(C)c3cncnc3)C4)cc(C(F)(F)F)c2)cn1` [7f, (R)-2-(Methyl(pyrimidin-5-yl)amino)-N-(3-(4-methyl-1H-imidazol-1-yl)-5-(trifluoromethyl)phenyl)-2,3-dihydro-1H-indene-5-carboxamide], in data set [1] (iv 5 mg/kg), the T1/2 came to 0.9 h and the Tmax stood at 0.083 h. For the same molecule, in data set [1] (po 25 mg/kg), the T1/2 came to 1.7 h and the Tmax worked out at 4.0 h. In data set [1] (po 25 mg/kg, 25 mg/kg), the “AUC(0–∞)” value is on record as 80 535 μg/(L h). The molecule further showed a bioavailability in data set [2] of 89.9%.

As usually defined, the Tmax is the time at which the peak concentration occurs. Usually bioavailability stands for dose-corrected exposure relative to a reference, in per cent. Read a low bioavailability as poor availability.
